Reference: patent US10787447B2, “Pharmaceutical compounds” (Heptares Therapeutics Limited, priority 2018, dated 2020)

Experiments:
Type in all cases: cell-based
[1] = biological target: T1, human muscarinic M3 receptor (Homo sapiens, UniProt P20309); experiment: Alphascreen Surefire phospho-ERK1/2 functional assay, M3; conditions: for % Emax cf. ACh, M3: CHO cells stably expressing human M3; for % Emax cf. ACh, M3 / Emax: Emax relative to ACh; for EC50: pEC50 M3, CHO cells stably expressing human M3, phospho-ERK1/2; for Emax: CHO, read-out: % Emax cf. ACh, M3, CHO cells stably expressing human M3
T1 construct: expressed in transfected cells
T1 sequence (P20309 whole entry): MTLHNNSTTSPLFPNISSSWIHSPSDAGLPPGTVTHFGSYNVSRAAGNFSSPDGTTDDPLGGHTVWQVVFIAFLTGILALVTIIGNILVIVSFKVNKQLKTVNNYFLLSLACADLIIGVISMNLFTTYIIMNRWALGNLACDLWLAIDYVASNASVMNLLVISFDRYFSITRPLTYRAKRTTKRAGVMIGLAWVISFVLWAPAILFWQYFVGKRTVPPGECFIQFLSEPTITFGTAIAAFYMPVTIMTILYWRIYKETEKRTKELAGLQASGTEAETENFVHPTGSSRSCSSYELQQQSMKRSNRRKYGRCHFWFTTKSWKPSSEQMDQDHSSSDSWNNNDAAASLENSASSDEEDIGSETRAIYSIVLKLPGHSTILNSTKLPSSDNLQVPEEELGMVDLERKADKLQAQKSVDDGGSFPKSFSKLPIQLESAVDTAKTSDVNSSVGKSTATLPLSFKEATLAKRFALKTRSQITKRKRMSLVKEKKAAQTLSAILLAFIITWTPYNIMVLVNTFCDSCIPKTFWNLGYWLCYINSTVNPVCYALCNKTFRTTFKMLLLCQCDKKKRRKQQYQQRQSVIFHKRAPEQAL
Description: (§1) ERK1/2 phosphorylation is a downstream consequence of both Gq/11 and Gi/o protein coupled receptor activation, making it highly suitable for the assessment of M1, M3 (Gq/11 coupled) and M2, M4 receptors (Gi/o coupled), rather than using different assay formats for different receptor subtypes. CHO cells stably expressing the human muscarinic M1, M2, M3 or M4 receptor were plated (25K/well) onto 96-well tissue culture plates in MEM-alpha+10% dialysed FBS. Once adhered, cells were serum-starved overnight. Agonist stimulation was performed by the addition of 5 μL agonist to the cells for 5 min (37° C.). Media was removed and 50 μL of lysis buffer added. After 15 min, a 4 μL sample was transferred to 384-well plate and 7 μL of detection mixture added.
(§2) Isomer assignment (Isomer 1, Isomer 2, etc.) is based on the retention time of the compound using the separation technique that was performed in the final purification step. By implication, this could be reversed phase HPLC, chiral HPLC or chiral SFC retention time, and this will vary from compound to compound.

[2] = biological target: T2, human muscarinic M2 receptor (Homo sapiens, UniProt P08172); experiment: Alphascreen Surefire phospho-ERK1/2 functional assay, M2; conditions: for % Emax cf. ACh, M2: CHO cells stably expressing human M2; for EC50: pEC50 M2, CHO cells stably expressing human M2, phospho-ERK1/2
T2 sequence (P08172 1-466): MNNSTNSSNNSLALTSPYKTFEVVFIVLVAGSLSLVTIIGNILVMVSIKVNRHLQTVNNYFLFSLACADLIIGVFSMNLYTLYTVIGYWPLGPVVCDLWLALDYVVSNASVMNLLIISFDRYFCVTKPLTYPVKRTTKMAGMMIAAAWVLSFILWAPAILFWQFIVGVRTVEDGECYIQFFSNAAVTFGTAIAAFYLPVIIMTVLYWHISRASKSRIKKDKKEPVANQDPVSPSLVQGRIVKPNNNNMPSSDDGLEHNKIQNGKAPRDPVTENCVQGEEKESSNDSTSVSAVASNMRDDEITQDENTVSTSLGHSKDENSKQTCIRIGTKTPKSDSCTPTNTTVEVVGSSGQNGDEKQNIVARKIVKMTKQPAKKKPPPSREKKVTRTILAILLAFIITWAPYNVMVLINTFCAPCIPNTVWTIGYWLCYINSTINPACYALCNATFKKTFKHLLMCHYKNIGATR
Description: as §1, §2

[3] = biological target: T3, human muscarinic M1 receptor (Homo sapiens, UniProt P11229); experiment: Alphascreen Surefire phospho-ERK1/2 functional assay, M1; conditions: for Emax: CHO, read-out: % Emax cf. ACh, M1, CHO cells stably expressing human M1; for Emax / % Emax cf. ACh, M1: Emax relative to ACh; for EC50: pEC50 M1, CHO cells stably expressing human M1, phospho-ERK1/2; for % Emax cf. ACh, M1: CHO cells stably expressing human M1
T3 sequence (P11229 1-460): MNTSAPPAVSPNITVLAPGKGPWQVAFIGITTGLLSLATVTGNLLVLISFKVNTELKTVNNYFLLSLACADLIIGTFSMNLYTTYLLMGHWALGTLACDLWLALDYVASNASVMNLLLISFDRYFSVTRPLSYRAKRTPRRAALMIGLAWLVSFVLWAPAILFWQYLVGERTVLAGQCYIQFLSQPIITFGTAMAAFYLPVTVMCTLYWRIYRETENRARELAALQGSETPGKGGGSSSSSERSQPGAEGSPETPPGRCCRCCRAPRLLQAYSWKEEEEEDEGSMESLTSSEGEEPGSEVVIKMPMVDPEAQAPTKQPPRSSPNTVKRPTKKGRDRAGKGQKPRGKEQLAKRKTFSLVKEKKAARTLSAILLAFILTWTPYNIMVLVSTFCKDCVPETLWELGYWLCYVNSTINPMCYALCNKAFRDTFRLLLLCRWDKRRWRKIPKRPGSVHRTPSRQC
Description: as §1, with “Functional assays were performed using the Alphascreen Surefire phospho-ERK1/2 assay (Crouch & Osmond, Comb. Chem. High Throughput Screen, 2008). ERK1/2” for “ERK1/2”
as §2, with “For the vast majority of examples at least two diastereomers exist and these have been separated, unless otherwise stated, using the techniques of reversed phase HPLC, chiral HPLC or chiral SFC. Isomer assignment” for “Isomer assignment”

[4] = biological target: T4, human muscarinic M4 receptor (Homo sapiens, UniProt P08173); experiment: Alphascreen Surefire phospho-ERK1/2 functional assay, M4; conditions: for % Emax cf. ACh, M4: CHO cells stably expressing human M4; for % Emax cf. ACh, M4 / Emax: Emax relative to ACh; for EC50: pEC50 M4, CHO cells stably expressing human M4, phospho-ERK1/2; for Emax: CHO, read-out: % Emax cf. ACh, M4, CHO cells stably expressing human M4
T4 sequence (P08173 1-479): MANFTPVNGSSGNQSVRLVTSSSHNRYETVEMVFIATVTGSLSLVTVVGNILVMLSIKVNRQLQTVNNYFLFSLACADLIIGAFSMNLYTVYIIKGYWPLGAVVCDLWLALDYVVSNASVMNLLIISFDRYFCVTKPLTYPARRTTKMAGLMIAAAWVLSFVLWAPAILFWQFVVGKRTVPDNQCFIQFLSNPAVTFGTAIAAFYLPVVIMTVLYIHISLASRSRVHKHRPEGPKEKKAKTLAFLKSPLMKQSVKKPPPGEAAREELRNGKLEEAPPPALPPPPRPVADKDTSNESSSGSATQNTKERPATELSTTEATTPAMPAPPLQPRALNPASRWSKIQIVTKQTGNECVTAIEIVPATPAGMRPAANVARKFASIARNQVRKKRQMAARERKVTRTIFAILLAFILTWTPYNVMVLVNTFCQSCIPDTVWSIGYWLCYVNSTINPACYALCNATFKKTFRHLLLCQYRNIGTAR
Description: as §1, §2

## CCOC(=O)N1C2COCC1CC(N1CCC(N(CC(C)C)C(C)=O)CC1)C2 (single isomer, unassigned) [Example 6-1 Isomer 1, Ethyl 7-{4-[acetyl(2-methylpropyl)amino]piperidin-1-yl}-3-oxa-9-azabicyclo[3.3.1]nonane-9-carboxylate]
[1]; listed as 6-1 Isomer 1
  % Emax cf. ACh, M3: 7%
[1]
  EC50: > 20000 nM
[2]; Emax relative to ACh, listed as 6-1 Isomer 1
  % Emax cf. ACh, M2: 26%
[2]
  EC50: > 20000 nM
[3]
  Emax: 93%
  EC50: 178 nM
[4]; listed as 6-1 Isomer 1
  % Emax cf. ACh, M4: 77%
[4]
  EC50: 151 nM

## CCOC(=O)N1C2COCC1CC(N1CCC(N(Cc3ccccc3)C(C)=O)CC1)C2 (single isomer, unassigned) [Example 6-5 Isomer 2, Ethyl 7-{4-[acetyl(benzyl)amino]piperidin-1-yl}-3-oxa-9-azabicyclo[3.3.1]nonane-9-carboxylate]
[1]; listed as 6-5 Isomer 2
  % Emax cf. ACh, M3: 83%
[1]
  EC50: 2820 nM
[2]; Emax relative to ACh, listed as 6-5 Isomer 2
  % Emax cf. ACh, M2: 68%
[2]
  EC50: 2340 nM
[3]
  % Emax cf. ACh, M1: 91%
  EC50: 15.8 nM
[4]; listed as 6-5 Isomer 2
  % Emax cf. ACh, M4: 73%
[4]
  EC50: 145 nM

## CCOC(=O)N1C2COCC1CC(N1CCC3(CC1)C(=O)Nc1ccccc13)C2 (single isomer, unassigned) [Example 5-5 Isomer 1, Ethyl 7-(2-oxo-1,2-dihydro-1′H-spiro[indole-3,4′-piperidin]-1′-yl)-3-oxa-9-azabicyclo[3.3.1]nonane-9-carboxylate]
[1]
  Emax: 4%
  EC50: > 20000 nM
[2]; Emax relative to ACh, listed as 5-5 Isomer 1
  % Emax cf. ACh, M2: 24%
[2]
  EC50: 123 nM
[3]; listed as 5-5 Isomer 1
  % Emax cf. ACh, M1: 75%
[3]
  EC50: 288 nM
[4]
  Emax: 99%
  EC50: 21.4 nM

## CCOC(=O)N1C2COCC1CC(N1CCC(N(CC(C)C)C(C)=O)CC1)C2 (single isomer, unassigned) [Example 6-1 Isomer 2, Ethyl 7-{4-[acetyl(2-methylpropyl)amino]piperidin-1-yl}-3-oxa-9-azabicyclo[3.3.1]nonane-9-carboxylate]
[1]; listed as 6-1 Isomer 2
  % Emax cf. ACh, M3: 62%
[2]; Emax relative to ACh, listed as 6-1 Isomer 2
  % Emax cf. ACh, M2: 90%
[2]
  EC50: 324 nM
[3]
  % Emax cf. ACh, M1: 102%
  EC50: 61.7 nM
[4]; listed as 6-1 Isomer 2
  % Emax cf. ACh, M4: 111%
[4]
  EC50: 17.4 nM

## CCOC(=O)N1C2COCC1CC(N1CCC(n3cc(Cl)cn3)CC1)C2 (single isomer, unassigned) [Example 1-2 Isomer 2, Ethyl 7-[4-(4-chloro-1H-pyrazol-1-yl)piperidin-1-yl]-3-oxa-9-azabicyclo[3.3.1]nonane-9-carboxylate]
[1]
  Emax: 2%
  EC50: > 20000 nM
[2]; Emax relative to ACh, listed as 1-2 Isomer 2
  % Emax cf. ACh, M2: 10%
[2]
  EC50: > 20000 nM
[3]; listed as 1-2 Isomer 2
  % Emax cf. ACh, M1: 67%
[3]
  EC50: 77.6 nM
[4]; listed as 1-2 Isomer 2
  % Emax cf. ACh, M4: 51%
[4]
  EC50: 13.2 nM

## CCOC(=O)N1C2COCC1CC(N1CCC(n3cccn3)CC1)C2 (single isomer, unassigned) [Example 1-1 Isomer 1, Ethyl 7-[4-(1H-pyrazol-1-yl)piperidin-1-yl]-3-oxa-9-azabicyclo[3.3.1]nonane-9-carboxylate]
[1]
  Emax: 13%
  EC50: > 20000 nM
[2]; CHO, read-out: % Emax cf. ACh, M2, CHO cells stably expressing human M2, Emax relative to ACh
  Emax: 57%
[2]
  EC50: 575 nM
[3]
  Emax: 116%
  EC50: 427 nM
[4]
  Emax: 100%
  EC50: 52.5 nM

## CCOC(=O)N1C2COCC1CC(N1CCC(N3CC(F)(F)C[C@@H]3CO)CC1)C2 (single isomer, unassigned) [Example 4-1 Isomer 2]
[1]; listed as 4-1 Isomer 2
  % Emax cf. ACh, M3: 4%
[2]; Emax relative to ACh, listed as 4-1 Isomer 2
  % Emax cf. ACh, M2: 17%
[2]
  EC50: > 20000 nM
[3]; listed as 4-1 Isomer 2
  % Emax cf. ACh, M1: 47%
[3]
  EC50: 398 nM
[4]; listed as 4-1 Isomer 2
  % Emax cf. ACh, M4: 59%
[4]
  EC50: 100 nM

## CCOC(=O)N1C2COCC1CC(N1CCC(N(Cc3ccccc3)C(C)=O)CC1)C2 (single isomer, unassigned) [Example 6-5 Isomer 1, Ethyl 7-{4-[acetyl(benzyl)amino]piperidin-1-yl}-3-oxa-9-azabicyclo[3.3.1]nonane-9-carboxylate]
[1]; listed as 6-5 Isomer 1
  % Emax cf. ACh, M3: 13%
[1]
  EC50: > 20000 nM
[2]; Emax relative to ACh, listed as 6-5 Isomer 1
  % Emax cf. ACh, M2: 11%
[2]
  EC50: > 20000 nM
[3]
  Emax: 92%
  EC50: 166 nM
[4]; listed as 6-5 Isomer 1
  % Emax cf. ACh, M4: 50%
[4]
  EC50: 302 nM
